Assay: Thymol Concentrations in Extractions (thymol released into liquid, HPLC)
Format: physicochemical
Settings: neat thymol <250 microns, 2 g, 30 mins
Description: An aliquot of a sample was centrifuged at approximately 5000 rpm until visible settling occurred (approximately 30 minutes). […]. The contents were dissolved and diluted with a 0.1% AA:IPA (50:50) solution to volume. The solution was then filtered with Pall Acrodisc 0.45 micron nylon membrane. The thymol concentration was determined through “High Performance Liquid Chromatography (HPLC) analysis” according to the following conditions:
HPLC Equipment & Conditions
HPLC: Agilent 1100 HPLC system.
Column: Phenomenex Luna NH2 (5 μm, 250 mm×4.6 mm)-ambient
Detector: UV/Vis at 280 nm
Mobile Phases: (75:25) (IPA: 0.1% acetic acid)
Flow Rate: approximately 0.6 mL/min.
Injection Volume: approximately 15 μL

With `Cc1ccc(C(C)C)c(O)c1` [thymol, Thymol] the “% Thymol (wt/wt) in extract solution” value (0 g citric acid, 100 mL deionized water) was 0.084 % (wt/wt) and the “% Thymol (wt/wt) in extract solution” value (1.14 g citric acid, 97 mL deionized water) was 0.081 % (wt/wt).
